Experimental data taken from US9745339B2 (GRAFFINITY PHARMACEUTICALS GMBH, priority 2012, dated 2017).

Key:
[1] = target: T1, Bevacizumab (Homo sapiens, UniProt P01857); test: Microtiter plate chromatography of resins: binding and elution of Bevacizumab
T1 construct: 0.5 mg/ml IgG in PBS pH 7.3; ligand immobilized on SEPHAR; Bevacizumab Yield; other: mass eluted (glycine pH 2.5) / mass injected; kd (dissociation constant, Langmuir isotherm); other: Bevacizumab 0.05-5 mg/ml in PBS pH 7.3, 25° C., at least 3 h; qm (maximum capacity); other: mg Bevacizumab per ml of resin; Langmuir isotherm; t0; fused on or other part: Humanized anti-VEGF-A VH domain joined N-terminally to the IGHG1 constant region (engineered, no UniProt entry)
Experimental: (§1) Resins were assessed in packed mode by microtiter plate chromatography. For each column, approximately 30 μl of resin were transferred to a 384-well filter plate and sealed with appropriate top fits. Columns with rProtein A SEPHAROSE 4 FF and MABSORBENT A2P HF were included as controls.
(§2) Either 3.3 cv of whole IgGs dissolved at 0.5 mg ml^−1 in PBS or undiluted host cell proteins (HCP) were injected onto columns.
(§3) Unbound protein was washed from columns with 5 cv of PBS prior to elution with 5 cv of glycine buffer at pH 2.5. […] During injection of samples, speed was reduced to 10 g and centrifugation time increased to 5-10 min. Effluent fractions were collected in 384-well plates and concentrations of protein were analyzed by Bradford assay. Protein masses mi, mft and me (see below) were calculated as the product of fraction volume and measured protein concentration.
(§4) The fraction of bound protein was calculated as the difference between the total mass of protein injected mi and the mass of protein detected in the flowthrough mft, divided by the total mass of protein injected.
(§5) The yield of protein was calculated as the mass of protein eluted me, divided by the mass of protein injected mi.
(§6) The selectivity of resins was calculated as the fraction of bound Bevacizumab antibody BAb, divided by the fraction of bound host cell proteins BHCP.
(§7) The fraction of bound protein and the yield of protein were calculated for each resin based on data for whole IgG-antibodies. In the case of host cell proteins, only the fraction of bound protein is given. Selectivity of resins was calculated from data for Bevacizumab whole IgG and host cell proteins. Due to limited experimental precision, selectivity was truncated for values beyond 10.

[2] = tested on: Bevacizumab; test: as above; conditions: fraction of bound Bevacizumab divided by fraction of bound HCP; truncated for values beyond 10
Experimental: as §1, §2, §3, §4, §5, §6, §7

[3] = tested on: Tocilizumab; test: Microtiter plate chromatography of resins: binding and elution of Tocilizumab
Experimental: as §1, §2, §3, §4, §5, §7

[4] = tested on: Palivizumab; test: Microtiter plate chromatography of resins: binding and elution of Palivizumab
Experimental: as §1, §2, §3, §4, §5, §7

[5] = tested on: Cetuximab; test: Microtiter plate chromatography of resins: binding and elution of Cetuximab
Experimental: as §1, §2, §3, §4, §5, §7

[6] = tested on: poly-IgG from human serum (h-poly-IgG); test: Microtiter plate chromatography of resins: binding and elution of human poly-IgG
Experimental: as §1, §2, §3, §4, §5, §7

[7] = tested on: host cell proteins (HCP); test: Microtiter plate chromatography of resins: binding of host cell proteins; design: species or system CHO cell culture
Experimental: Flowthrough from protein A chromatography (referred to as host cell proteins) was derived from the supernatant of antibody-producing CHO cell culture in serum-free medium. Coomassie brilliant blue dye reagent for Bradford assay was purchased from Thermo Scientific (Bonn/Germany).
as §1, §2, §3, §4, §7

[8] = target: T1, Bevacizumab; test: Langmuir isotherms by batch adsorption; format: binding; conditions: read-out: kd (dissociation constant, Langmuir isotherm); Bevacizumab 0.05-5 mg/ml in PBS pH 7.3, 25° C., at least 3 h
Experimental: Experiments were performed with Bevacizumab as antibody. Parameters of Langmuir isotherms for purified antibody were determined by batch adsorption experiments in 96-well microtiter plates. In each well, 10 μl of sorbent slurry (50% v/v) were mixed with 100 μl of protein solution. Initial concentrations varied from 0.05-5 mg/ml in phosphate-buffered saline (0.15 M NaCl, 20 mM phosphate buffer, pH 7.3; PBS). Reactions were agitated vigorously at 25° C. for at least 3 h. Afterwards, antibody concentration in the supernatants were measured by Bradford assay. Data was evaluated by direct fitting of the values with the Langmuir isotherm equation (1).
Parameters of Langmuir isotherms, i.e. dissociation constants Kd and maximum capacities qm, were determined from the measured concentrations in the supernatants. Parameters were estimated by numerical fitting of the model equation derived by Chase (1)

[9] = fraction of injected protein bound, 0.5 mg/ml IgG in PBS pH 7.3, ligand immobilized on SEPHAROSE 4 FF
[10] = mass eluted (glycine pH 2.5) / mass injected
[11] = fraction of injected protein bound, 0.5 mg/ml IgG in PBS pH 7.3
[12] = fraction of injected undiluted host cell proteins bound
[13] = L55-73: estimated values based on the knowledge obtained from L01-L54

| SMILES | Bevacizumab Bound [1, 9] [%] | Bevacizumab Yield [1, 10] [%] | Selectivity [2] | Tocilizumab Bound [3, 11] [%] | Palivizumab Bound [4, 11] [%] | Cetuximab Bound [5, 11] [%] | h-poly-IgG Bound [6, 11] [%] | HCP Bound [7, 12] [%] | Kd [8] [µM] | Bevacizumab Bound [1, 13] [%] | Bevacizumab Yield [1, 13] [%] | Tocilizumab Bound [3, 13] [%] | Palivizumab Bound [4, 13] [%] | Cetuximab Bound [5, 13] [%] | h-poly-IgG Bound [6, 13] [%] | HCP Bound [7, 13] [%] |
| --- | --- | --- | --- | --- | --- | --- | --- | --- | --- | --- | --- | --- | --- | --- | --- | --- |
| CCSc1nnc(NC(=O)c2ccc3c(c2)ncn3CCCN)s1 [Ligand L12, 1-(3-Amino-1-propyl)benzimidazole-5-carboxylic acid N-(2-ethylthio-1,3,4-thiadiazol-5-yl) amide] | 100 | 104 | 2.5 | 100 | 100 | 100 | 100 | 40 |  |  |  |  |  |  |  |  |
| NCCCNc1ccc(C(=O)Nc2nnc(-c3ccco3)s2)cc1[N+](=O)[O-] [Ligand L18, 4-[(3-Amino-1-propyl)amino]-3-nitrobenzoic acid N-[5-(2-furyl)-1,3,4-thiadiazol-2-yl]amide] | 100 | 102 | 3.4 | 100 | 100 | 100 | 100 | 29 |  |  |  |  |  |  |  |  |
| NCCCOc1ccc(C(=O)Nc2nc(-c3ccccn3)cs2)cc1 [Ligand L38, 4-[(1-Amino-3-propyl)oxy]benzoic acid N-[4-(2-pyridyl)thiazol-2-yl] amide] | 100 | 106 | 2.9 | 99 | 95 | 100 | 99 | 35 |  |  |  |  |  |  |  |  |
| Cn1nc(C(=O)Nc2ccc3c(c2)C(=O)N(CCCN)CCO3)c2ccccc21 [Ligand L03, 4-(3-Amino-1-propyl)-7-[(1-methylindazol-3-yl)carboxamido]-2,3,4,5-tetrahydrobenzo[f][1,4]oxazepin-5-one] | 100 | 92 | 2.2 | 99 | 78 | 99 |  | 45 |  |  |  |  |  |  |  |  |
| Cc1csc(NC(=O)c2ccc3c(c2)ncn3CCCN)n1 [Ligand L15, 1-(3-Amino-1-propyl)benzimidazole-5-carboxylic acid N-(4-methylthiazol-2-yl) amide] | 100 | 91 | 2.6 | 100 | 100 | 100 | 100 | 39 |  |  |  |  |  |  |  |  |
| NCCCn1cnc2cc(C(=O)Nc3nnc(-c4ccccc4)s3)ccc21 [Ligand L33, 1-(3-Amino-1-propyl)benzimidazole-5-carboxylic acid N-(2-phenyl-1,3,4-thiadiazol-5-yl) amide] | 100 | 105 | 2.9 | 100 | 100 | 100 | 100 | 34 |  |  |  |  |  |  |  |  |
| NCCCn1cnc2cc(C(=O)Nc3nnc(-c4ccncc4)s3)ccc21 [Ligand L21, 1-(3-Amino-1-propyl)benzimidazole-5-carboxylic acid N-[5-(4-pyridyl)-1,3,4-thiadiazol-2-yl]amide] | 100 | 100 | 10.0 | 98 | 85 | 100 | 82 | 2 |  |  |  |  |  |  |  |  |
| NCCCn1cnc2cc(C(=O)Nc3nnc(C4CC4)s3)ccc21 [Ligand L35, 1-(3-Amino-1-propyl)benzimidazole-5-carboxylic acid N-(2-cyclopropyl-1,3,4-thiadiazol-5-yl) amide] | 100 | 104 | 3.4 | 100 | 100 | 100 | 100 | 29 |  |  |  |  |  |  |  |  |
| Cc1cc(NC(=O)c2ccc3c(c2)ncn3CCCN)nn1-c1ccccc1 [Ligand L11, 1-(3-Amino-1-propyl)benzimidazole-5-carboxylic acid N-(5-methyl-1-phenylpyrazol-3-yl) amide] | 100 | 99 | 2.0 | 96 | 61 | 98 | 88 | 51 |  |  |  |  |  |  |  |  |
| NCCCn1cnc2cc(C(=O)Nc3nc4c(s3)CCC4)ccc21 [Ligand L32, 1-(3-Amino-1-propyl)benzimidazole-5-carboxylic acid N-(5,6-dihydro-(4H)-cyclopentathiazol-2-yl) amide] | 100 | 103 | 2.3 | 100 | 91 | 100 | 91 | 44 |  |  |  |  |  |  |  |  |
| NCCCn1cnc2cc(C(=O)Nc3nc(-c4ccccc4)ns3)ccc21 [Ligand L22, 1-(3-Amino-1-propyl)benzimidazole-5-carboxylic acid N-(3-phenyl-1,2,4-thiadiazol-5-yl) amide] | 100 | 104 | 3.3 | 100 | 100 | 100 | 100 | 30 |  |  |  |  |  |  |  |  |
| NCCCn1cc(-c2ccc(C(=O)Nc3nnc(-c4ccco4)s3)cc2)nn1 [Ligand L48] | 100 |  |  |  |  |  |  |  | 713 |  |  |  |  |  |  |  |
| Cc1nc2cc(C(=O)Nc3nnc(-c4ccno4)s3)ccc2n1CCCN [Ligand L71, 1-(3-Amino-1-propyl)-2-methylbenzimidazole-5-carboxylic acid N-[5-(5-isoxazolyl)-1,3,4-thiadiazol-2-yl] amide] |  |  |  |  |  |  |  |  |  | 100 | >80 | >90 | >60 | >95 | >80 | <20 |
| Cc1nc2cc(C(=O)Nc3ccc(-c4ccco4)nn3)ccc2n1CCCN [Ligand L64, 1-(3-Amino-1-propyl)-2-methylbenzimidazole-5-carboxylic acid N-[6-(2-furyl)pyridazin-3-yl] amide] |  |  |  |  |  |  |  |  |  | 100 | >80 | >90 | >60 | >95 | >80 | <20 |
| NCCCn1cnc2cc(C(=O)Nc3nnc(-c4ccoc4)s3)ccc21 [Ligand L56, 1-(3-Amino-1-propyl)benzimidazole-5-carboxylic acid N-[5-(3-furyl)-1,3,4-thiadiazol-2-yl] amide] |  |  |  |  |  |  |  |  |  | 100 | >80 | >95 | >80 | 100 | >80 | <40 |
| Cn1nc(NC(=O)c2ccc3c(c2)nnn3CCCN)c2ccccc21 [Ligand L06, 1-(3-Amino-1-propyl)benzotriazole-5-carboxylic acid N-(1-methylindazol-3-yl) amide] | 100 | 84 | 3.2 |  | 74 |  |  | 31 |  |  |  |  |  |  |  |  |
